Experimental findings from article PMC8625360 (Cells, 2021) are described below.

Format in all cases: cell-based, human
The subject of experiment [1] is HepG2 WT cells. Description: Autophagy detection by western blot (LC3B-II/LC3B-I), HepG2 WT. Conditions: 24 h treatment, 100–800 µM, effect at 600 µM and 800 µM. Here is the method: (§1) 5 × 10^5 HepG2 cells were cultured in 2 mL of DMEM medium supplemented with 10% FBS and 1% P/S. Once the cell reached 80% confluence, they were treated with varied concentration of CuSO4 (Sigma Aldrich, 209198) from 200 µM to 800 µM for 24 h. For the starvation induction, cells were additionally treated with Earle’s Balanced Salt Solution (EBSS) media (Sigma Aldrich, E3024) for 2 h with or without 50 µM chloroquine (CLQ) prior to lysis with RIPA buffer containing inhibitor cocktails (Roche Life Science, 11697498001). Protein concentration was determined to be sure that the protein of each sample was equally loaded on the Criterion TGX precast gel for western blot detection. ATP7B, GAPDH and LC3B-II/LC3B-I was determined using the above-mentioned antibodies. Western Blot analysis was carried out as described above.
(In general: A western blot detects proteins with antibodies after separation by electrophoresis.)

Experiment [2] concerns HepG2 WT cells. Description: Autophagosome-lysosome fusion, tandem sensor RFP-GFP-LC3B, HepG2 WT. The following applies: 24 h, high CuSO4 concentration, significance reached at 800 µM, 30–50 cells per condition. Here is the method: (§2) For the detection of the effect of copper on autophagosome-lysosome fusion, 50,000 cells of each HepG2 WT and HepG2 ATP7B^−/− were grown on laminin-coated coverslips for 24 h, transduced with BacMam-GFP-RFP-LC3B overnight according to the manufacturer’s recommendations. The cells were then treated with CuSO4 at a concentration range from 100 µM to 800 µM for 24 h, fixed with 4% paraformaldehyde for 15 min and finally stained with 250 ng/mL DAPI (Thermo Fisher scientific, Molecular Probes, D1306) for 5 min. The coverslips were fixed on a glass slide using Mowiol 4–88 (Sigma Aldrich, 81381). The fluorescence cell imaging was acquired using a confocal Zeiss LSM 780 microscope with a 63 × 1.40 Oil DIC M27. […] Red and yellow puncta count per cell was done using the particle analysis in image J. For protein ATP7B trafficking analysis, 50,000 cells of HepG2 WT and HepG2 ATP7B^−/− were cultured in a 500 µL cell culture medium on a laminin-coated coverslip for 24 h, then transfected with EGFP-ATP7B. After 6 h post transfection, cells were transduced with BacMam-RFP-Golgi or the BacMam-RFP-Lysosome overnight, then treated with various concentrations of CuSO4 or 200 µM of bathocuproine disulfonate (BCS) for 24 h or EBSS for 2 h, respectively. […] Pearson’s correlation coefficient was analyzed per cell using the colocalization threshold of ImageJ Fiji.

The test system of experiment [3] is HepG2 WT cells. Description: Colocalization of EGFP-ATP7B-WT with TGN, lysosome (LAMP1) and LC3B markers. As for the experimental part:
For the detection of the effect of copper on autophagosome-lysosome fusion, 50,000 cells of each HepG2 WT and HepG2 ATP7B^−/− were grown on laminin-coated coverslips for 24 h, transduced with BacMam-GFP-RFP-LC3B overnight according to the manufacturer’s recommendations. The cells were then treated with CuSO4 at a concentration range from 100 µM to 800 µM for 24 h, fixed with 4% paraformaldehyde for 15 min and finally stained with 250 ng/mL DAPI (Thermo Fisher scientific, Molecular Probes, D1306) for 5 min. The coverslips were fixed on a glass slide using Mowiol 4–88 (Sigma Aldrich, 81381). The fluorescence cell imaging was acquired using a confocal Zeiss LSM 780 microscope with a 63 × 1.40 Oil DIC M27. […] Red and yellow puncta count per cell was done using the particle analysis in image J. For protein ATP7B trafficking analysis, 50,000 cells of HepG2 WT and HepG2 ATP7B^−/− were cultured in a 500 µL cell culture medium on a laminin-coated coverslip for 24 h, then transfected with EGFP-ATP7B. After 6 h post transfection, cells were transduced with BacMam-RFP-Golgi or the BacMam-RFP-Lysosome overnight, then treated with various concentrations of CuSO4 or 200 µM of bathocuproine disulfonate (BCS) for 24 h or EBSS for 2 h, respectively. To detect LC3B or endogenous ATP7B, the fixed cells were incubated with anti-LC3B or anti-ATP7B antibodies at 4 °C overnight followed by secondary antibody incubation, Alexa Fluor 568 goat anti-rabbit, at temperature for 1 h in the dark. Pearson’s correlation coefficient was analyzed per cell using the colocalization threshold of ImageJ Fiji.

For experiment [4], the system named is HepG2 ATP7B^−/− cells. Description: Autophagy detection by western blot (LC3B-II/LC3B-I), HepG2 ATP7B-/-. The following applies: 24 h, even at 600 µM and 800 µM. As for the experimental part: as §1
Experiment [5] has as its system HepG2 ATP7B^−/− cells. Briefly: Autophagosome-lysosome fusion, tandem sensor RFP-GFP-LC3B, HepG2 ATP7B-/-. The following applies: 24 h, 800 µM, 30–50 cells per condition. Here is the method:
as §2

`O=S(=O)([O-])[O-].[Cu+2]` [CuSO4]: the “LC3B-II level (western blot)” value with HepG2 WT cells [1] is “significant increase of LC3B-II”. Moreover, the “red/yellow puncta ratio (autophagosome-lysosome fusion)” value is on record as “increased red/yellow puncta ratio” with HepG2 WT cells [2] and “significantly decreased” in the experiment on HepG2 ATP7B^−/− cells [5]. Moreover, the “TGN fraction of EGFP-ATP7B” value in the experiment with HepG2 WT cells [3] (400 µM CuSO4, 24 h) is on record as “no TGN fraction was detectable”. Also, the “fold increase of EGFP-ATP7B colocalization with lysosomal structures vs basal medium condition” value in the experiment on HepG2 WT cells [3] (400 µM CuSO4, 24 h) is on record as “about 1.2 fold”. The “colocalization of EGFP-ATP7B with lysosomal structures (LAMP1)” value in the experiment on HepG2 WT cells [3] (400 µM CuSO4, 24 h, percentage from mean Pearson's correlation coefficient, 30 cells) amounted to 83.6%. Moreover, the “fold elevation of EGFP-ATP7B colocalization with LC3B vs basal copper concentration” value with HepG2 WT cells [3] (high CuSO4 concentration (400 µM), 24 h) is on record as 4.8 fold. In the experiment on HepG2 WT cells [3] (high CuSO4 concentration (400 µM), 24 h, from mean Pearson's correlation coefficient, 30 cells), the “colocalization of EGFP-ATP7B with LC3B” value worked out at 11.6%. Also, the “LC3B-II/LC3B-I ratio (western blot)” value with HepG2 ATP7B^−/− cells [4] is reported as “did not significantly alter”.
